The results in this text go back to patent US4716171A (Etablissements Nativelle S.A., priority 1981, dated 1987).

Series [1] in a line: LD50 in rats (Lichfield and Wilcoxon method). Particulars: rat, in vivo, male, oral. The text has this: (§1) For example, the results obtained with 3S-hydroxy-10,11-dihydroquinidine in the form of the hydrochloride salt are shown in Table 1 below.
The nature of series [2]: LD50 in mice (Lichfield and Wilcoxon method). Particulars: mouse, in vivo, mice, read-out: LD50.
Description: as §1

The structures appear in SMILES notation.

As for `CC[C@@]1(O)CN2CC[C@H]1C[C@@H]2[C@@H](O)c1ccnc2ccc(OC)cc12` [3S-hydroxy-10,11-dihydroquinidine], the LD50 in series [1] worked out at 640 mg/kg; in series [2] (ip, female, IP), 180 mg/kg; in series [2] (ip, male, IP), 280 mg/kg; in series [2] (iv, female, IV) it was 105 mg/kg; in series [2] (iv, male, IV) it was 120 mg/kg; in series [2] (po, female, oral), 900 mg/kg. Moreover, in series [2] (po, male, oral), the LD50 was 975 mg/kg.

The term LD50 denotes the dose expected to kill half of the subjects tested.
